Square brackets hold non-standard residues; d marks the D form. Peptide text beside a SMILES is read from it. * marks the point of attachment. dPhe(4-NHCONH2) = NC(=O)Nc1ccc(C[C@@H](N)C(=O)O)cc1; Dihydroorotyl(S) = O=C1C[C@@H](C(=O)*)NC(=O)N1; dPhe(4-Cl) = N[C@H](Cc1ccc(Cl)cc1)C(=O)O; Phe(4-NH2) = Nc1ccc(C[C@H](N)C(=O)O)cc1; d2Nal = N[C@H](Cc1ccc2ccccc2c1)C(=O)O; Lys(iPr) = CC(C)NCCCC[C@H](N)C(=O)O; d3Pal = N[C@H](Cc1cccnc1)C(=O)O
How the values were obtained:
[1] = in vivo
Procedure: Body weight was measured at screening and the end of study visit.

[2] = CS21: mortality by treatment group; type: in vivo, human
Description: The death of a patient enrolled in this study was not considered an event per se, but rather an outcome. Any event resulting in a fatal outcome was fully documented and reported, including death, which occurred within the four weeks after treatment end, and regardless of the causality relationship to the IMP.
Mortality Subgroups with Statistically (Pre-Planned as Part of the ISS) Significant Findings

[3] = system: luteinizing hormone (LH); experiment: CS21: serum LH over time; type: in vivo, human
Procedure: (§1) Finally, the study evaluated the pharmacokinetics of the degarelix dosing regimens investigated.
(§2) The secondary efficacy endpoints were: the proportion of patients with testosterone surge during the first 2 weeks of treatment; the proportion of patients with testosterone level ≤0.5 ng/mL at day 3; the percentage change in PSA from baseline to day 28; the probability of testosterone ≤0.5 ng/mL from day 56 through day 364; the levels of serum testosterone, LH, FSH and PSA over time through the study; the time to PSA failure, defined as two consecutive increases of 50%, and at least 5 ng/mL as compared to nadir; degarelix concentration over the first month and trough levels at day 308 and 336; the frequency and size of testosterone increases at day 255 and/or 259 compared to the testosterone level at day 252; the quality of life on days 0, 28, 84, 168 and end of study visit; the frequency and intensity of hot flushes experienced (scored daily from study start until end of study visit. In addition, two further secondary endpoints were added: the probability of sufficient testosterone response from day 28 through day 364 (a patient was considered to have insufficient testosterone response if they had one testosterone value >1.0 ng/mL or two consecutive testosterone values >0.5 ng/mL at day 28 onwards); and the percentage change in PSA from baseline to Day 14.

[4] = system: prostate-specific antigen (PSA); experiment: CS21: PSA response and PSA failure; type: in vivo, human; details: for Day 14 percentage change in PSA, median / Day 28 percentage change in PSA, median: Day 0 dose degarelix 240@40; for median percentage change (reduction) in PSA from baseline: leuprolide 7.5 mg with anti-androgen flare protection; for median percentage reduction in PSA from baseline: leuprolide 7.5 mg without anti-androgen
Procedure: as §2
All secondary efficacy endpoints were analyzed for both the ITT and PP analysis sets, unless otherwise stated. The proportion of patients with testosterone surge during the first 2 weeks of treatment was analyzed using Fisher's exact test. Fisher's exact test was also used to analyze the proportion of patients with testosterone level ≤0.5 ng/mL at day 3. The percentage change in PSA from baseline to day 28 endpoint was analyzed by a Wilcoxon test.
The secondary endpoints; probability of testosterone ≤0.5 ng/mL from Day 56 through Day 364, time to PSA failure and probability of sufficient testosterone response from Day 28 through Day 364 were analyzed by the Kaplan-Meier method.

[5] = system: follicle stimulating hormone (FSH); experiment: CS21: serum FSH over time; type: in vivo, human
Procedure: as §1, §2

[6] = age <65, degarelix 240@40/80@20, LUPRON DEPOT 7.5 mg
[7] = age >=75, degarelix 240@40/80@20, LUPRON DEPOT 7.5 mg
[8] = degarelix 240/80 mg, leuprolide 7.5 mg

SMILES: CCNC(=O)[C@@H]1CCCN1C(=O)[C@H](CCCNC(=N)N)NC(=O)[C@H](CC(C)C)NC(=O)[C@@H](CC(C)C)NC(=O)[C@H](Cc1ccc(O)cc1)NC(=O)[C@H](CO)NC(=O)[C@H](Cc1c[nH]c2ccccc12)NC(=O)[C@H](Cc1c[nH]cn1)NC(=O)[C@@H]1CCC(=O)N1 [Leuprolide, leuprolide, reference compound]
- markedly abnormal increases in weight of ≥7% from baseline, % of patients [1]: 13%
- Crude Mortality ([2]; Age >=65-<75): (8%)
- Mortality per 1,000 PY, estimate ([2]; Age >=65-<75): 99.0 per 1,000 PY
- No. of Deaths ([2]; Age >=65-<75): 6
- Crude Mortality ([2]; PCA = Localized): (6%)
- Mortality per 1,000 PY, estimate ([2]; PCA = Localized): 70.3 per 1,000 PY
- No. of Deaths ([2]; PCA = Localized): 4
- median LH level ([3]; by day 56 until day 364): 0.035 IU/L
- median LH level ([3]; day 1): 31.0 IU/L
- increase in median LH from baseline ([3]; day 1, leuprolide 7.5 mg): > 400%
- Day 14 percentage change in PSA, median ([4]; PCA = Localized): −13.2%
- Day 28 percentage change in PSA, median ([4]; PCA = Localized): −55.7%
- Day 14 percentage change in PSA, median ([4]; PCA = Metastatic): −25.3%
- Day 28 percentage change in PSA, median ([4]; PCA = Metastatic): −79.7%
- Day 14 percentage change in PSA, median ([4]; PCA Locally advanced): −21.3%
- Day 28 percentage change in PSA, median ([4]; PCA Locally advanced): −73.2%
- Probability of no PSA failure [4, 6]: 68.2%
- Probability of no PSA failure [4, 7]: 86.8%
- median percentage change (reduction) in PSA from baseline ([4]; day 14): 61.7%
- median percentage reduction in PSA from baseline ([4]; day 14): 15.3%
- median percentage change (reduction) in PSA from baseline ([4]; day 28): 89.1%
- median percentage reduction in PSA from baseline ([4]; day 28): 61.7%
- probability of completing the study without experiencing PSA failure [4, 8]: ~85.8%
- median FSH plateau ([5]; around day 56 until day 364): approximately 4.40 IU/L
- median FSH level ([5]; by day 14): 2.0 IU/L
- increase in FSH from baseline ([5]; day 1): 146%
- median FSH level (peak) ([5]; day 1): 22.5 IU/L

SMILES: CC(=O)N[C@H](Cc1ccc2ccccc2c1)C(=O)N[C@H](Cc1ccc(Cl)cc1)C(=O)N[C@H](Cc1cccnc1)C(=O)N[C@@H](CO)C(=O)N[C@@H](Cc1ccc(NC(=O)[C@@H]2CC(=O)NC(=O)N2)cc1)C(=O)N[C@H](Cc1ccc(NC(N)=O)cc1)C(=O)N[C@@H](CC(C)C)C(=O)N[C@@H](CCCCNC(C)C)C(=O)N1CCC[C@H]1C(=O)N[C@H](C)C(N)=O [Degarelix, D-Alaninamide, N-acetyl-3-(2-naphthalenyl)-D-alanyl-4-chloro-D-phenylalanyl-3-(3-pyridinyl)-D-alanyl-L-seryl-4-[[[(4S)-hexahydro-2,6-dioxo-4-pyrimidinyl]carbonyl]amino]-L phenylalanyl-4-[(aminocarbonyl)amino]-D-phenylalanyl-L leucyl-N6-(1-methylethyl)-L-lysyl-L-prolyl] (Ac-[d2Nal][dPhe(4-Cl)][d3Pal]S[Phe(4-NH2)](Dihydroorotyl(S))[dPhe(4-NHCONH2)]L[Lys(iPr)]P[dA]-NH2)
- markedly abnormal increases in weight of ≥7% from baseline, % of patients [1]: 10%
- Crude Mortality ([2]; Age >=65-<75): (2%)
- Mortality per 1,000 PY, estimate ([2]; Age >=65-<75): 20.2 per 1,000 PY
- No. of Deaths ([2]; Age >=65-<75): 3
- Crude Mortality ([2]; PCA = Localized): (0%)
- Mortality per 1,000 PY, estimate ([2]; PCA = Localized): 0 per 1,000 PY
- No. of Deaths ([2]; PCA = Localized): 0
- decrease in median LH from baseline ([3]; day 1): approximately 88%
- median LH level ([3]; day 1): < 0.7 IU/L
- Day 14 percentage change in PSA, median ([4]; PCA = Localized): −50.6%
- Day 28 percentage change in PSA, median ([4]; PCA = Localized): −75.0%
- Day 14 percentage change in PSA, median ([4]; PCA = Metastatic): −77.9%
- Day 28 percentage change in PSA, median ([4]; PCA = Metastatic): −89.9%
- Day 14 percentage change in PSA, median ([4]; PCA Locally advanced): −66.6%
- Day 28 percentage change in PSA, median ([4]; PCA Locally advanced): −84.1%
- Probability of no PSA failure ([4]; age <65, degarelix 240/160@40): 71.6%
- Probability of no PSA failure [4, 6]: 85.2%
- Probability of no PSA failure ([4]; age >=75, degarelix 240/160@40): 94.5%
- Probability of no PSA failure [4, 7]: 96.6%
- probability of a PSA observation from the pooled degarelix groups being less than one from the leuprolide 7.5 mg group ([4]; day 14): 0.82
- probability of a PSA observation from the pooled degarelix groups being less than one from the leuprolide 7.5 mg group ([4]; day 28): 0.70
- probability of completing the study without experiencing PSA failure [4, 8]: 91.2%
- probability of completing the study without experiencing PSA failure ([4]; degarelix 240/160 mg): ~85.8%
- decrease in median FSH from baseline ([5]; by day 7): > 80%
- median FSH level ([5]; by day 7): ≤ 1.5 IU/L

Source: patent US11766468B2, “Method of treating prostate cancer with GnRH antagonist” (priority 2012, dated 2023)
